Test results taken from patent US9089499B2, “Para-coumaric acid or para-hydroxycinnamic acid derivatives and their use in cosmetic or dermatological compositions” (BASF Beauty Care Solutions France S.A.S., priority 2005, dated 2015).
Read-outs that look alike come from different tables or passages of the source.

Tests used:
[1] = system: normal human melanocytes; test: Cytotoxicity on normal human melanocytes, PNPP assay; type: cell-based; settings: 24 hours, relative to untreated wells
Procedure: The cytotoxicity of the active agents is studied on normal human melanocytes in 24-well plates, via assay with PNPP (P-nitrophenyl phosphate), this substance being converted into p-nitrophenol via the intracellular acid phosphatases of viable cells. The absorbance of p-nitrophenol at 405 nm is directly proportional to the number of viable cells.
The active agents are tested at 2 different concentrations (10^−4 M and 10^−5 M) and added to the culture medium and incubated at 37° C. for 24 hours. The assay with PNPP is performed on the cell lawn and the results are expressed as a percentage of viability relative to the negative control (untreated wells).

[2] = system: skin of rabbits; test: Primary skin irritation in rabbits; type: in vivo; settings: 10% in a 0.5% xanthan gel; undiluted, 0.5 ml to the skin of rabbits
Procedure: The preparations described above are applied without dilution at a dose of 0.5 ml to the skin of 3 rabbits according to the method recommended by the OCDE Directive concerning the study of “the acute irritant/corrosive effect on the skin”. The products are classified according to the criteria defined by the decree of 1/2/1982 published in the JORF of 21/02/82.

[3] = system: fungal tyrosinase; test: In vitro test of inhibition of isolated fungal tyrosinase (L-dopa, dopachrome OD 490 nm); type: biochemical; settings: 490 nm
Description: Tyrosinase catalyses the formation of L-dopaquinone and then of dopachrome from L-dopa. Now, dopachrome is a coloured compound that may be quantified by visible spectrophotometry at 490 nm. The use of an active agent capable of modifying the enzymatic activity will be reflected by a variation in the optical density at 490 nm. The to ratio of the rates of formation of dopachrome makes it possible to determine precisely the activations or inhibitions obtained with the various test molecules.
The sample to be tested is incubated in the presence of fungal tyrosinase (Sigma), for 5 minutes with stirring. L-Dopa (Sigma), a tyrosinase substrate, is incubated for 10 minutes in the absence of light, in the presence or absence of the test molecules. The calculation of the percentage of inhibition is performed by relating the test OD to the OD of the negative control without molecule.
In the context of this in vitro test, the p-coumaric acid derivatives were tested at final concentrations of 10^−4M and 10^−5M.

[4] = system: eye of rabbits; test: Ocular irritation in rabbits; type: in vivo; settings: 10% in a 0.5% xanthan gel; pure, 0.1 ml single instillation, rabbit eye
Procedure: The preparations described above were instilled pure, in a single application, at a rate of 0.1 ml, into the eye of 3 rabbits according to the method recommenced by the OCDE Directive No. 405 of 24 February 1987 concerning the study of the “acute irritant/corrosive effect on the eyes”.

[5] = biological target: T1, Human tyrosinase (Homo sapiens, UniProt P14679); test: In vitro test of inhibition of human tyrosinase from melanocyte extracts (L-dopa/MBTH, OD 490 nm); type: biochemical; settings: melanocyte extract
T1 construct: endogenous in cells; host or cells: normal human melanocytes (abdominal surgery; several donors of fair, brown and black phototypes)
T1 sequence (P14679 19-529): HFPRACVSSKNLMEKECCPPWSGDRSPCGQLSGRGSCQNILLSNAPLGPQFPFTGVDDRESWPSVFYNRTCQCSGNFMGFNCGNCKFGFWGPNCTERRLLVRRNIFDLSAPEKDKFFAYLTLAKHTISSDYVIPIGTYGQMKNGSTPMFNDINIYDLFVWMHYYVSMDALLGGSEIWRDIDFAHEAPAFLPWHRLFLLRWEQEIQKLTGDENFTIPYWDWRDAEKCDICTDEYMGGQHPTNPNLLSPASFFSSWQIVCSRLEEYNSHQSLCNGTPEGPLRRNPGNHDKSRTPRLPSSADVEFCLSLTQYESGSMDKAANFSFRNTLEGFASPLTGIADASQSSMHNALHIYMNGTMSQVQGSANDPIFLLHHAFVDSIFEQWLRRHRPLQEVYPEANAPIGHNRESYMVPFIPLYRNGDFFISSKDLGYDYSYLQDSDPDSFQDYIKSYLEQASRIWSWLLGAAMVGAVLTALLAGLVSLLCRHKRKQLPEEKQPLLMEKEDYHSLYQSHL
Procedure: Human tyrosinase, obtained from melanocyte extracts obtained from healthy donors, catalyses the formation of L-dopaquinone from L-dopa. Now, the L-dopaquinone may be quantified by visible spectrophotometry at 490 nm by means of a chromogen: 3-methyl-2-benzothiazolinone hydrazone (MBTH).
The melanocyte extract is obtained after lysis of cell membranes of the normal human melanocytes, performed via a thermal shock. The supernatant is recovered and then incubated with MBTH (Sigma) and L-dopa (Sigma). […]

[6] = biological target: T1, Human tyrosinase; test: Inhibition of human tyrosinase after 24 h application to normal human melanocytes in monolayer; type: cell-based; settings: for inhibition at 1000 µM: 10^−3 M
Procedure: Normal human melanocytes (obtained from abdominal surgery) are seeded in 24-well plates at a rate of 80 000 cells per well. They are cultured to confluence and the active agents are applied for 24 hours to the culture media. After 24 hours, the media are removed and the melanocytes are detached via mechanical action. An extraction is performed via a thermal shock and the supernatants are then recovered and incubated with MBTH (Sigma) and L-dopa (Sigma). The OD at 490 nm is measured after 30 minutes, and the tyrosinase inhibition is calculated by relating the OD at 490 nm to the protein content (measured in each culture well) of the test relative to the ratio: OD 490 nm/protein concentration of the negative control (untreated control).
The compounds derived from the examples mentioned above were tested on melanocytes derived from various donors but of fair phototype, according to the protocol described in Example 29. The donors tested are as follows: • donor S (donor tested in Example 12): • donor 1: • donor 2: • donor 3
The compound derived from Example 1 is tested on cultures of melanocytes obtained from 2 donors of brown phototype and from one donor of black phototype. The protocol applied is that described in Example 29. […]

## COc1cc(/C=C/C(=O)NCCc2ccc(O)c(O)c2)ccc1O [Example 1, N-trans-feruloyldopamine]
[1]; 10^−4 M
  Percentages of viability, Mean 10^−4 M: 94.49%
[1]; 10^−5 M
  Percentages of viability, Mean 10^−5 M: 119.83%
[2]
  Primary skin irritation classification: non-irritant to the skin
[3]; 10^−4M
  Inhibition of fungal tyrosinase, percentage of inhibition, Mean 10^−4M: 9.18%
[3]; 10^−5M
  Inhibition of fungal tyrosinase, percentage of inhibition, Mean 10^−5M: 0%
[4]
  Ocular irritation classification: non-irritant to the eyes
[5]; 10^−4M, read-out: Inhibition of human tyrosinase, percentage of inhibition, Mean 10^−4M
  inhibition at 100 µM: 0%
[5]; 10^−5M, read-out: Inhibition of human tyrosinase, percentage of inhibition, Mean 10^−5M
  inhibition at 10 µM: 0%
[6]; 10^−4M, 24 hours, read-out: Inhibition of human tyrosinase after application to normal human melanocytes, percentage of inhibition, Mean 10^−4M
  inhibition at 100 µM: 62.3%
[6]; 10^−5M, 24 hours, read-out: Inhibition of human tyrosinase after application to normal human melanocytes, percentage of inhibition, Mean 10^−5M
  inhibition at 10 µM: 29.4%
[6]; B103, Donor B, brown phototype, read-out: Inhibition of tyrosinase, Mean Donor B, 10^−3 M
  inhibition at 1000 µM: 87.2%
[6]; B104, Donor B, brown phototype, 10^−4 M, read-out: Inhibition of tyrosinase, Mean Donor B, 10^−4 M
  inhibition at 100 µM: 65.8%
[6]; Donor 1, fair phototype, 10^−4 M, read-out: Inhibition of tyrosinase, Mean 10^−4 M, Donor 1
  inhibition at 100 µM: 63.9%
[6]; Donor 1, fair phototype, 10^−5 M, read-out: Inhibition of tyrosinase, Mean 10^−5 M, Donor 1
  inhibition at 10 µM: 35.8%
[6]; Donor 2, fair phototype, 10^−4 M, read-out: Inhibition of tyrosinase, Mean 10^−4 M, Donor 2
  inhibition at 100 µM: 59.9%
[6]; Donor 2, fair phototype, 10^−5 M, read-out: Inhibition of tyrosinase, Mean 10^−5 M, Donor 2
  inhibition at 10 µM: 12.9%
[6]; Donor 3, fair phototype, 10^−4 M, read-out: Inhibition of tyrosinase, Mean 10^−4 M, Donor 3
  inhibition at 100 µM: 50.2%
[6]; Donor 3, fair phototype, 10^−5 M, read-out: Inhibition of tyrosinase, Mean 10^−5 M, Donor 3
  inhibition at 10 µM: 18.9%
[6]; Donor A, brown phototype, read-out: Inhibition of tyrosinase, Mean Donor A, 10^−3 M
  inhibition at 1000 µM: 99.4%
[6]; Donor A, brown phototype, 10^−4 M, read-out: Inhibition of tyrosinase, Mean Donor A, 10^−4 M
  inhibition at 100 µM: 59.2%
[6]; Donor A, brown phototype, 10^−5 M, read-out: Inhibition of tyrosinase, Mean Donor A, 10^−5 M
  inhibition at 10 µM: 29.3%
[6]; Donor B, brown phototype, 10^−5 M, read-out: Inhibition of tyrosinase, Mean Donor B, 10^−5 M
  inhibition at 10 µM: 20.8%
[6]; Donor S, fair phototype, 10^−4 M, read-out: Inhibition of tyrosinase, Mean 10^−4 M, Donor S
  inhibition at 100 µM: 62.3%
[6]; Donor S, fair phototype, 10^−5 M, read-out: Inhibition of tyrosinase, Mean 10^−5 M, Donor S
  inhibition at 10 µM: 29.4%
